{"source": "the NIST ThermoML archive (doi:10.1021/je060271a)", "conditions": "283.15 K, Liquid, Vibrating tube method", "note": "Numbers after ± are expanded uncertainties.", "data": [{"smiles": "CCCCCC(=O)OCC(COC(=O)CCCCC)(COC(=O)CCCCC)COC(=O)CCCCC", "note": "[pentaerythritol tetrahexanoate]", "values": [{"measurement": "mass density", "setting": "7124.1 kPa", "result": "1008.3 ± 1.2", "unit": "kg/m3"}, {"measurement": "mass density", "setting": "7135 kPa", "result": "1008.3 ± 1.2", "unit": "kg/m3"}, {"measurement": "mass density", "setting": "7146.2 kPa", "result": "1008.3 ± 1.2", "unit": "kg/m3"}, {"measurement": "mass density", "setting": "7159.7 kPa", "result": "1008.3 ± 1.2", "unit": "kg/m3"}, {"measurement": "mass density", "setting": "7170.9 kPa", "result": "1008.3 ± 1.2", "unit": "kg/m3"}, {"measurement": "mass density", "setting": "7182 kPa", "result": "1008.3 ± 1.2", "unit": "kg/m3"}, {"measurement": "mass density", "setting": "7193.4 kPa", "result": "1008.3 ± 1.2", "unit": "kg/m3"}, {"measurement": "mass density", "setting": "7206.5 kPa", "result": "1008.3 ± 1.2", "unit": "kg/m3"}, {"measurement": "mass density", "setting": "7217.2 kPa", "result": "1008.4 ± 1.2", "unit": "kg/m3"}, {"measurement": "mass density", "setting": "7228.4 kPa", "result": "1008.3 ± 1.2", "unit": "kg/m3"}, {"measurement": "mass density", "setting": "7241.6 kPa", "result": "1008.4 ± 1.2", "unit": "kg/m3"}, {"measurement": "mass density", "setting": "7252.8 kPa", "result": "1008.4 ± 1.2", "unit": "kg/m3"}, {"measurement": "mass density", "setting": "7264.2 kPa", "result": "1008.4 ± 1.2", "unit": "kg/m3"}, {"measurement": "mass density", "setting": "7277.8 kPa", "result": "1008.3 ± 1.2", "unit": "kg/m3"}, {"measurement": "mass density", "setting": "7289 kPa", "result": "1008.4 ± 1.2", "unit": "kg/m3"}, {"measurement": "mass density", "setting": "7300.4 kPa", "result": "1008.3 ± 1.2", "unit": "kg/m3"}, {"measurement": "mass density", "setting": "7311.8 kPa", "result": "1008.3 ± 1.2", "unit": "kg/m3"}, {"measurement": "mass density", "setting": "7323.4 kPa", "result": "1008.3 ± 1.2", "unit": "kg/m3"}, {"measurement": "mass density", "setting": "7336.9 kPa", "result": "1008.4 ± 1.2", "unit": "kg/m3"}, {"measurement": "mass density", "setting": "7348.4 kPa", "result": "1008.4 ± 1.2", "unit": "kg/m3"}, {"measurement": "mass density", "setting": "7360.2 kPa", "result": "1008.3 ± 1.2", "unit": "kg/m3"}, {"measurement": "mass density", "setting": "7373.8 kPa", "result": "1008.5 ± 1.2", "unit": "kg/m3"}, {"measurement": "mass density", "setting": "7385.4 kPa", "result": "1008.3 ± 1.2", "unit": "kg/m3"}, {"measurement": "mass density", "setting": "7396.9 kPa", "result": "1008.4 ± 1.2", "unit": "kg/m3"}, {"measurement": "mass density", "setting": "7408.7 kPa", "result": "1008.5 ± 1.2", "unit": "kg/m3"}, {"measurement": "mass density", "setting": "7422.7 kPa", "result": "1008.5 ± 1.2", "unit": "kg/m3"}, {"measurement": "mass density", "setting": "7434.6 kPa", "result": "1008.5 ± 1.2", "unit": "kg/m3"}, {"measurement": "mass density", "setting": "7446.5 kPa", "result": "1008.5 ± 1.2", "unit": "kg/m3"}, {"measurement": "mass density", "setting": "7458.6 kPa", "result": "1008.5 ± 1.2", "unit": "kg/m3"}, {"measurement": "mass density", "setting": "7472.7 kPa", "result": "1008.5 ± 1.2", "unit": "kg/m3"}, {"measurement": "mass density", "setting": "7484.8 kPa", "result": "1008.6 ± 1.2", "unit": "kg/m3"}, {"measurement": "mass density", "setting": "7496.7 kPa", "result": "1008.4 ± 1.2", "unit": "kg/m3"}, {"measurement": "mass density", "setting": "7508.6 kPa", "result": "1008.6 ± 1.2", "unit": "kg/m3"}, {"measurement": "mass density", "setting": "7523.2 kPa", "result": "1008.5 ± 1.2", "unit": "kg/m3"}, {"measurement": "mass density", "setting": "7534.9 kPa", "result": "1008.5 ± 1.2", "unit": "kg/m3"}, {"measurement": "mass density", "setting": "7547.3 kPa", "result": "1008.6 ± 1.2", "unit": "kg/m3"}, {"measurement": "mass density", "setting": "7561.6 kPa", "result": "1008.5 ± 1.2", "unit": "kg/m3"}, {"measurement": "mass density", "setting": "7573.6 kPa", "result": "1008.5 ± 1.2", "unit": "kg/m3"}, {"measurement": "mass density", "setting": "7586 kPa", "result": "1008.5 ± 1.2", "unit": "kg/m3"}, {"measurement": "mass density", "setting": "7598.2 kPa", "result": "1008.6 ± 1.2", "unit": "kg/m3"}, {"measurement": "mass density", "setting": "7613.2 kPa", "result": "1008.4 ± 1.2", "unit": "kg/m3"}, {"measurement": "mass density", "setting": "7625.9 kPa", "result": "1008.6 ± 1.2", "unit": "kg/m3"}, {"measurement": "mass density", "setting": "7637.9 kPa", "result": "1008.6 ± 1.2", "unit": "kg/m3"}, {"measurement": "mass density", "setting": "7650.7 kPa", "result": "1008.5 ± 1.2", "unit": "kg/m3"}, {"measurement": "mass density", "setting": "7665 kPa", "result": "1008.6 ± 1.2", "unit": "kg/m3"}, {"measurement": "mass density", "setting": "7678 kPa", "result": "1008.5 ± 1.2", "unit": "kg/m3"}, {"measurement": "mass density", "setting": "7690.4 kPa", "result": "1008.6 ± 1.2", "unit": "kg/m3"}, {"measurement": "mass density", "setting": "7705.3 kPa", "result": "1008.7 ± 1.2", "unit": "kg/m3"}, {"measurement": "mass density", "setting": "7717.7 kPa", "result": "1008.6 ± 1.2", "unit": "kg/m3"}, {"measurement": "mass density", "setting": "7730.5 kPa", "result": "1008.7 ± 1.2", "unit": "kg/m3"}, {"measurement": "mass density", "setting": "7742.7 kPa", "result": "1008.6 ± 1.2", "unit": "kg/m3"}, {"measurement": "mass density", "setting": "7758.4 kPa", "result": "1008.7 ± 1.2", "unit": "kg/m3"}, {"measurement": "mass density", "setting": "7771.4 kPa", "result": "1008.7 ± 1.2", "unit": "kg/m3"}, {"measurement": "mass density", "setting": "7784.3 kPa", "result": "1008.7 ± 1.2", "unit": "kg/m3"}, {"measurement": "mass density", "setting": "7798.4 kPa", "result": "1008.5 ± 1.2", "unit": "kg/m3"}, {"measurement": "mass density", "setting": "7811.2 kPa", "result": "1008.7 ± 1.2", "unit": "kg/m3"}, {"measurement": "mass density", "setting": "7826.7 kPa", "result": "1008.7 ± 1.2", "unit": "kg/m3"}, {"measurement": "mass density", "setting": "7839.6 kPa", "result": "1008.8 ± 1.2", "unit": "kg/m3"}, {"measurement": "mass density", "setting": "7852.8 kPa", "result": "1008.8 ± 1.2", "unit": "kg/m3"}, {"measurement": "mass density", "setting": "7866 kPa", "result": "1008.8 ± 1.2", "unit": "kg/m3"}, {"measurement": "mass density", "setting": "7881.9 kPa", "result": "1008.7 ± 1.2", "unit": "kg/m3"}, {"measurement": "mass density", "setting": "7895 kPa", "result": "1008.7 ± 1.2", "unit": "kg/m3"}, {"measurement": "mass density", "setting": "7908.3 kPa", "result": "1008.7 ± 1.2", "unit": "kg/m3"}, {"measurement": "mass density", "setting": "7924.2 kPa", "result": "1008.7 ± 1.2", "unit": "kg/m3"}, {"measurement": "mass density", "setting": "7937.3 kPa", "result": "1008.7 ± 1.2", "unit": "kg/m3"}, {"measurement": "mass density", "setting": "7950.8 kPa", "result": "1008.6 ± 1.2", "unit": "kg/m3"}, {"measurement": "mass density", "setting": "7967.7 kPa", "result": "1008.7 ± 1.2", "unit": "kg/m3"}, {"measurement": "mass density", "setting": "7978.6 kPa", "result": "1008.7 ± 1.2", "unit": "kg/m3"}, {"measurement": "mass density", "setting": "7994.5 kPa", "result": "1008.8 ± 1.2", "unit": "kg/m3"}, {"measurement": "mass density", "setting": "8008.3 kPa", "result": "1008.8 ± 1.2", "unit": "kg/m3"}, {"measurement": "mass density", "setting": "8022.4 kPa", "result": "1008.7 ± 1.2", "unit": "kg/m3"}, {"measurement": "mass density", "setting": "8036.2 kPa", "result": "1008.9 ± 1.2", "unit": "kg/m3"}]}]}
